Reference: patent US9567300B2, “Hexahydropentaleno derivatives, preparation method and use in medicine thereof” (SUNSHINE LAKE PHARMA CO., LTD., priority 2012, dated 2017)

Tests used:
DPP-IV = target: T1, DPP-IV (Homo sapiens, UniProt P27487); assay: Active inhibition DPP-IV assay (Gly-Pro-AMC substrate, fluorescence); assay type: biochemical; settings: Gly-Pro-AMC 10 μM, 25 mM Tris pH 8.0
T1 construct: purchased R&D 1180-SE
Protocol: (§1) The following methods were used for testing the inhibitive action of the compound disclosed herein against DPP-IV, DPP-8 and DPP-9 enzymatic activity. The inhibitive ability of the compound disclosed herein against enzymatic activity of DPP-IV, DPP-8 and DPP-9 was tested. The measurements of the inhibition ratio or the 50% inhibiting concentration IC50 of every compound were based on a fixed quantity of enzyme-substrate mixtures and different concentrations of the test compounds.
DPP-IV enzyme was purchased from R&D, Catalog No. 1180-SE.
(§2) The test compound was dissolved in an appropriate amount of DMSO to prepare 100 mM mother liquor, which was divided into EP tubes and preserved at −20° C. The mother liquor was diluted with an assay buffer to prepare solutions with required concentrations. Sample solutions with different concentrations (4 μL) and certain concentration of DPP-IV (DPP-8 or DPP-9) solution (4 μL) were added into 384-well plates in turn. Referred to the instruction manual, Gly-Pro-AMC was selected as a substrate and the concentration thereof was 10 μM. The 16 mM mother liquor was prepared from the substrate and preserved at −20° C. for use. The 16 mM mother liquor was diluted with an assay buffer to a solution of known concentration. The assay buffer of DPP-IV was 25 mM Tris, and its pH was 8.0. The assay buffers of DPP-8 and DPP-9 were 50 mM Tris, and their pH was 7.5. The substrate mother liquor was diluted with an assay buffer, and the mixture (4 μL) was added into 384-well plates to prepare final solution concentration. The whole process was carried out in an ice bath. After the addition of the components of the assay system was completed, the system was centrifuged. The supernatant was then transferred to an Infinite F200 multifunctional microplate reader, and 20 fluorescence values were recorded every 30 sec. And then Slope (V0) was calculated directly by the software of microplate reader, fetching the data in the linear range. The measured reaction rate and the corresponding inhibition concentration were analyzed. Percent inhibition is I(%)=(V0−Vi)/V0×100%. Vi represents the initial reaction rate at different inhibition concentrations. V0 represents the initial reaction rate without inhibitor. Vi/V0 represents the inhibition level of inhibitor. Relevant curve chart was made with inhibition concentration as a horizontal coordinate and the value of Vi/V0 as a vertical coordinate. The IC50 values were calculated by Graph Pad Prism statistical analysis software.

DPP-8 = target: T2, DPP-8 (Homo sapiens, UniProt Q6V1X1); assay: Active inhibition DPP-8 assay (Gly-Pro-AMC substrate, fluorescence); assay type: biochemical; settings: Gly-Pro-AMC 10 μM, 50 mM Tris pH 7.5
T2 construct: purchased Biomol SE-827
T2 sequence (Q6V1X1 whole entry): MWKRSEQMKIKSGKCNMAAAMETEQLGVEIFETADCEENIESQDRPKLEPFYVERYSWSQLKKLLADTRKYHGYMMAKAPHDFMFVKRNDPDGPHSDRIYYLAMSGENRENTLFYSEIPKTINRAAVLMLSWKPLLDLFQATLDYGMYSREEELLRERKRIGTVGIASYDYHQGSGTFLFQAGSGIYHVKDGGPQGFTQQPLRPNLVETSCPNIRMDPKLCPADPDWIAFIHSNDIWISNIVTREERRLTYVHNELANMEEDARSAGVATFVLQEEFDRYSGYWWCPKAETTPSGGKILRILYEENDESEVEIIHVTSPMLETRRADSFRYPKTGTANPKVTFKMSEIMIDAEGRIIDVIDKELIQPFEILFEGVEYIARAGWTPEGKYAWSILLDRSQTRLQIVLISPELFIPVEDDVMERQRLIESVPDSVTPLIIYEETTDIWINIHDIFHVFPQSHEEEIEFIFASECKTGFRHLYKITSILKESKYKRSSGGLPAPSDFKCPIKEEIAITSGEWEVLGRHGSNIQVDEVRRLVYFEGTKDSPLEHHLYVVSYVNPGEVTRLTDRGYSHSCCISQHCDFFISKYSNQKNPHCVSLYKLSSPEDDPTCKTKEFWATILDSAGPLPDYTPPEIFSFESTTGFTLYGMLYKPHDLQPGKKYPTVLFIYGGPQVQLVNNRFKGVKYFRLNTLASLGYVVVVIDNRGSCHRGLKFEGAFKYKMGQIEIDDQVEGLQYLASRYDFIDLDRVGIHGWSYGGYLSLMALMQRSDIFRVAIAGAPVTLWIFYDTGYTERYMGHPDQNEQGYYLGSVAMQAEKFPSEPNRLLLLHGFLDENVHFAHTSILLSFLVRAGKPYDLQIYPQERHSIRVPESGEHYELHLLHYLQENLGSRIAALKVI
Protocol: as §1
DPP-8 enzyme was purchased from Biomol, Catalog No. SE-827.
as §2

DPP-9 = target: T3, DPP-9 (Homo sapiens, UniProt Q86TI2); assay: Active inhibition DPP-9 assay (Gly-Pro-AMC substrate, fluorescence); assay type: biochemical; settings: Gly-Pro-AMC 10 μM, 50 mM Tris pH 7.5
T3 construct: purchased Bioscience 80090
T3 sequence (Q86TI2 whole entry): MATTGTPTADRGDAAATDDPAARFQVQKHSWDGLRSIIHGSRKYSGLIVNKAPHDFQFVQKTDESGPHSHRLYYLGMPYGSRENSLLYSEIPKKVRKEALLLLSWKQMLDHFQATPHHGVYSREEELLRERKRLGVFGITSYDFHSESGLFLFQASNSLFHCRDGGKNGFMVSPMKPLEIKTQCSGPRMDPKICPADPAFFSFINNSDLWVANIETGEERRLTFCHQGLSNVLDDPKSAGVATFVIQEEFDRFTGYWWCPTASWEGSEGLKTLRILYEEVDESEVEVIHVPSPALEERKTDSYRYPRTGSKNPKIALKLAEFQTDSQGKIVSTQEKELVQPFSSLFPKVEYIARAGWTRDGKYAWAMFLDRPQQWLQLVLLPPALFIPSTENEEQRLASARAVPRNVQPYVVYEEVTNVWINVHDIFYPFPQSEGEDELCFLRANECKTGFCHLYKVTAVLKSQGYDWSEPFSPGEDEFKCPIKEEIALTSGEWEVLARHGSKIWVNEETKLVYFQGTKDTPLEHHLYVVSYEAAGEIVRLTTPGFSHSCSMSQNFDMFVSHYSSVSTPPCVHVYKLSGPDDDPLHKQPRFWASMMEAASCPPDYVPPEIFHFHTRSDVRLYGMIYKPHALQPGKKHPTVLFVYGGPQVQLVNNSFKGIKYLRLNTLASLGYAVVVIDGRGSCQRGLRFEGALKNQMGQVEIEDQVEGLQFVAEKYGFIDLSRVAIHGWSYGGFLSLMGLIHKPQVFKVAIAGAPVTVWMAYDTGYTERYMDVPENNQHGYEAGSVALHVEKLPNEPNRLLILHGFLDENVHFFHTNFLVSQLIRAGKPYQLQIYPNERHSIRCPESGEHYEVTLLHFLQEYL
Protocol: as §1
DPP-9 enzyme was purchased from Bioscience, Catalog No. 80090.
as §2

normal C57BL/6 mice = assay: Effects of DPP-IV inhibitors on the blood glucose of normal C57BL/6 mice (oral glucose tolerance); assay type: in vivo; settings: oral 5 mg/kg; for Nor-sugar rate % (5 mg/kg): male C57BL/6 mice, glucose 2.5 g/kg by gavage 30 min after administration
Protocol: The effects of the test compounds on the oral glucose tolerance of normal C57BL/6 mice were observed, and the hypoglycemic activities of these compounds in vivo were evaluated preliminarily.
Preparation procedure: Drugs were accurately weighed, and 5 mg of compounds of examples 3, 9 15, 16 and 17 were dissolved respectively in 20 mL of normal saline to obtain 0.25 mg/mL solutions.
Administrated Dose: The oral dose was 5 mg/kg and the gavage dose was 0.02 mL/g.
Test Method: The normal male C57BL/6 mice were grouped randomly into a blank control group, a positive control group, and treatment groups having 7 mice each group.
Administration and Serum Glucose Determination: C57BL/6 mice of each group were fasted for 18 hours before the experiment. The blood was drawn from the caudal vein of the mice and the glucose level was measured by using a blood-glucose meter. After detection, 0.25 mg/mL of positive control, 0.25 mg/mL of examples 3, 9, 15, 16 and 17 and normal saline were respectively administered to the positive control group, treatment groups and blank control group by intragastric administration. The blood glucose level (0 min) of positive control group was measured in 60 min after administration. The blood glucose levels (0 min) of the other groups were measured in 30 min after administration, and then glucose (2.5 g/kg) was administered to the mice through gavage. The blood was drawn from the caudal vein of the mice in 15 min, 30 min, 45 min, 60 min, 120 min after administration. The blood glucose levels of C57BL/6 mice were measured continuously by blood-glucose meter.
1. Glucose concentration-time curve was plotted, and AUC from 0 to 120 min and hypoglycemic rate of each dosage group at blood glucose peak were calculated.
2. Experimental data were represented in x±SD. The data were analyzed by SPSS 16.0 software. The data were compared between multiple groups using nonparametric Kruskal-Wallis H test method.

T1 sequence (P27487 whole entry): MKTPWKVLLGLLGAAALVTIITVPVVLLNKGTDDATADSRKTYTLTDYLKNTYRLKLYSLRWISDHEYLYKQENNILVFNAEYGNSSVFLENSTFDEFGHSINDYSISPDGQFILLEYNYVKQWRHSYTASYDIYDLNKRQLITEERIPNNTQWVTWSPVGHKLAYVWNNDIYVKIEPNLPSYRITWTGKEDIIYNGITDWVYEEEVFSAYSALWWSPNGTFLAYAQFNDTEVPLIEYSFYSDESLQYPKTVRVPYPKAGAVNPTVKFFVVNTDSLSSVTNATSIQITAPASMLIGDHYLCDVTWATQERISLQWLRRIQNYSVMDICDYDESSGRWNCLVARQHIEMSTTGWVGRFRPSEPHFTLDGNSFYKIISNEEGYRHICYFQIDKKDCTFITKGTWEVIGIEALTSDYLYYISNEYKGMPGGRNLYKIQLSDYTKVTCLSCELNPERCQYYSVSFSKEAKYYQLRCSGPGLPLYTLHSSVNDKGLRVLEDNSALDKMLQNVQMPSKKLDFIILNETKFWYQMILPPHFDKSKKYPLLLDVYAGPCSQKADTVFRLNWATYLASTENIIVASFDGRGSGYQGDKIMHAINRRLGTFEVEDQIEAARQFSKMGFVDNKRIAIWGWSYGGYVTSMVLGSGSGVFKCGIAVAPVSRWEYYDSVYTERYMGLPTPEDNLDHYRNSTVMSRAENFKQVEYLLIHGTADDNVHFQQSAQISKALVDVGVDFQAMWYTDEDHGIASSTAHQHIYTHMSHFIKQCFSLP

Row | IC50 (DPP-IV) [nM] | IC50 (DPP-8) [nM] | IC50 (DPP-9) [nM] | SMILES | Nor-sugar rate % (5 mg/kg) (normal C57BL/6 mice) [%] | hypoglycemic activities for C57BL/6 mice (normal C57BL/6 mice; conclusion in words)
1 | 4.01 | 2850 | 29 | C[C@@]1(NCC(=O)N2C[C@@H](F)C[C@H]2C#N)C[C@H]2C[C@H](O)C[C@H]2C1 [Example 9, (2S,4S)-4-fluoro-1-(2-(((2r,3aR,5R,6aS)-5-hydroxy-2-methyloctahydropentalen-2-yl)amino)acetyl)pyrrolidine-2-carbonitrile] | 18.7 | good hypoglycemic activities
2 | 2.49 | 3920 | 93 | C[C@@]1(NCC(=O)N2C[C@@H](F)C[C@H]2C#N)C[C@H]2C[C@@H](O)C[C@H]2C1 [Example 3, (2S,4S)-4-fluoro-1-(2-(((2r,3aR,5S,6aS)-5-hydroxy-2-methyloctahydropentalen-2-yl)amino)acetyl)pyrrolidine-2-carbonitrile] | 35.96 | 
